Test results taken from patent USRE39591E1, “6-O-substituted ketolides having antibacterial activity” (Abbott Laboratories, priority 1996, dated 2007).
≈ marks a conversion by molar mass, not a printed value.

Test system: up to 32 different microorganisms
Test: in vitro antibacterial activity (MIC), agar dilution on Brain Heart Infusion (BHI) agar with Steers replicator
Type: cell-based
Settings: unit assumed
Protocol: Representative compounds of the present invention were assayed in vitro for antibacterial activity as follows: Twelve petri dishes containing successive aqueous dilutions of the test compound mixed with 10 mL of sterilized Brain Heart Infusion (BHI) agar (Difco 0148-01-5) were prepared. Each plate was inoculated with 1:100 (or 1:10 for slow-growing strains, such as Micrococcus and Streptococcus) dilutions of up to 32 different microorganisms, using a Steers replicator block. The inoculated plates were incubated at 35°-37° C. for 20 to 24 hours. In addition, a control plate, using BHI agar containing no test compound, was prepared and incubated at the beginning and end of each test.
An additional plate containing a compound having known susceptibility patterns for the organisms being tested and belonging to the same antibiotic class as the test compound was also prepared and incubated as a further control, as well as to provide test-to-test comparability. Erythromycin A was used for this purpose.
After incubation, each plate was visually inspected. The minimum inhibitory concentration (MIC) was defined as the lowest concentration of drug yielding no growth, a slight haze, or sparsely isolated colonies on the inoculum spot as compared to the growth control.

[1] = Candida albicans CCH 442 (code TT)
[2] = Enterococcus faecism ATCC 8043 (code II)
[3] = Escherichia coli DC-2 (code SS)
[4] = Escherichia coli JUHL (code QQ)
[5] = Haemophilis influenzae DILL AMP R (code WW)
[6] = Micrococcus luteus ATCC 4698 (code PP)
[7] = Micrococcus luteus ATCC 9341 (code OO)
[8] = Mycobacterium smegmatis ATCC 114 (code UU)
[9] = Nocardia Asteroides ATCC9970 (code VV)
[10] = Staphylococcus aureus 1775 (code GG)
[11] = Staphylococcus aureus A5177 (code BB)
[12] = Staphylococcus aureus A-5278 (code CC)
[13] = Staphylococcus aureus ATCC 6538P (code AA)
[14] = Staphylococcus aureus CMX 553 (code FF)
[15] = Staphylococcus aureus CMX 642A (code DD)
[16] = Staphylococcus aureus NCTC10649M (code EE)
[17] = Staphylococcus epidermidis 3519 (code HH)
[18] = Streptococcus Pneumonia 5649 (code ZZA)
[19] = Streptococcus Pneumonia 5979 (code ZZ)
[20] = Streptococcus Pneumonia ATCC6303 (code XX)
[21] = Streptococcus Pneumonia GYR 1171 (code YY)
[22] = Streptococcus agalactiae CMX 508 (code KK)
[23] = Streptococcus bovis A-5169 (code JJ)
[24] = Streptococcus pyogenes 930 (code MM)
[25] = Streptococcus pyogenes EES61 (code LL)
[26] = Streptococcus pyogenes PIU 2548 (code NN)

| Compound | MIC [1] | MIC [2] | MIC [3] | MIC [4] | MIC (Escherichia coli SS (code RR)) | MIC [6] | MIC [7] | MIC [8] | MIC [9] | MIC [10] | MIC [11] | MIC [12] | MIC [13] | MIC [14] | MIC [15] | MIC [16] | MIC [17] | MIC [22] | MIC [24] | MIC [25] | other results |
| --- | --- | --- | --- | --- | --- | --- | --- | --- | --- | --- | --- | --- | --- | --- | --- | --- | --- | --- | --- | --- | --- |
| CCC1OC(=O)C(C)C(=O)C(C)C(OC2OC(C)CC(N(C)C)C2O)C(C)(OCC=Cc2ccc3[nH]ccc3c2)CC(C)C(=O)C(C)C2NC(=O)OC12C (stereo not shown) [Example 190, R is —CH2CH═CH-(5-indolyl)] | > 100 µg/mL | 0.02 µg/mL (≈ 0.0265 µM) | 100 µg/mL (≈ 133 µM) | 100 µg/mL (≈ 133 µM) | 0.2 µg/mL (≈ 0.265 µM) | 0.1 µg/mL (≈ 0.133 µM) | 0.01 µg/mL (≈ 0.0133 µM) | 0.78 µg/mL (≈ 1.03 µM) | 0.1 µg/mL (≈ 0.133 µM) | > 100 µg/mL | 0.05 µg/mL (≈ 0.0663 µM) | > 100 µg/mL | 0.05 µg/mL (≈ 0.0663 µM) | 0.02 µg/mL (≈ 0.0265 µM) | 0.05 µg/mL (≈ 0.0663 µM) | 0.02 µg/mL (≈ 0.0265 µM) | 0.05 µg/mL (≈ 0.0663 µM) | ≤ 0.005 µg/mL | 12.5 µg/mL (≈ 16.6 µM) | ≤ 0.005 µg/mL | MIC [5]: 4 µg/mL (≈ 5.31 µM); MIC [18]: 0.5 µg/mL (≈ 0.663 µM); MIC [19]: > 128 µg/mL; MIC [20]: 0.06 µg/mL (≈ 0.0796 µM); MIC [21]: 0.03 µg/mL (≈ 0.0398 µM); MIC [23]: ≤ 0.005 µg/mL; MIC [26]: 0.1 µg/mL (≈ 0.133 µM) |
| CCC1OC(=O)C(C)C(=O)C(C)C(OC2OC(C)CC(N(C)C)C2O)C(C)(OCC=Cc2cnc3ccc(Cl)cc3c2)CC(C)C(=O)C(C)C2NC(=O)OC12C (stereo not shown) [Example 191, R is —CH2CH═CH-(6-chloro-3-quinolyl)] | > 100 µg/mL | 0.05 µg/mL (≈ 0.0625 µM) | 100 µg/mL (≈ 125 µM) | 50 µg/mL (≈ 62.5 µM) | 0.2 µg/mL (≈ 0.25 µM) | 0.1 µg/mL (≈ 0.125 µM) | 0.01 µg/mL (≈ 0.0125 µM) | 0.39 µg/mL (≈ 0.487 µM) | 0.02 µg/mL (≈ 0.025 µM) | > 100 µg/mL | 0.05 µg/mL (≈ 0.0625 µM) | > 100 µg/mL | 0.05 µg/mL (≈ 0.0625 µM) | 0.05 µg/mL (≈ 0.0625 µM) | 0.05 µg/mL (≈ 0.0625 µM) | 0.1 µg/mL (≈ 0.125 µM) | 0.05 µg/mL (≈ 0.0625 µM) | 0.05 µg/mL (≈ 0.0625 µM) | 3.1 µg/mL (≈ 3.87 µM) | 0.02 µg/mL (≈ 0.025 µM) | MIC [5]: 2 µg/mL (≈ 2.5 µM); MIC [18]: 0.25 µg/mL (≈ 0.312 µM); MIC [19]: 2 µg/mL (≈ 2.5 µM); MIC [20]: 0.03 µg/mL (≈ 0.0375 µM); MIC [21]: 0.03 µg/mL (≈ 0.0375 µM); MIC [26]: 0.1 µg/mL (≈ 0.125 µM) |
| CCC1OC(=O)C(C)C(=O)C(C)C(OC2OC(C)CC(N(C)C)C2O)C(C)(OCC=Cc2ccc3c(c2)OCCO3)CC(C)C(=O)C(C)C2NC(=O)OC12C (stereo not shown) [Example 192] | > 100 µg/mL | 0.02 µg/mL (≈ 0.0259 µM) | 100 µg/mL (≈ 129 µM) | > 100 µg/mL | 0.2 µg/mL (≈ 0.259 µM) | 0.2 µg/mL (≈ 0.259 µM) | 0.01 µg/mL (≈ 0.0129 µM) | 3.1 µg/mL (≈ 4.01 µM) | 0.1 µg/mL (≈ 0.129 µM) | > 100 µg/mL | 0.1 µg/mL (≈ 0.129 µM) | > 100 µg/mL | 0.1 µg/mL (≈ 0.129 µM) | 0.1 µg/mL (≈ 0.129 µM) | 0.1 µg/mL (≈ 0.129 µM) | 0.2 µg/mL (≈ 0.259 µM) | 0.1 µg/mL (≈ 0.129 µM) | 0.01 µg/mL (≈ 0.0129 µM) | 50 µg/mL (≈ 64.7 µM) | 0.01 µg/mL (≈ 0.0129 µM) | MIC [5]: 4 µg/mL (≈ 5.18 µM); MIC [18]: 0.25 µg/mL (≈ 0.323 µM); MIC [19]: > 128 µg/mL; MIC [20]: 0.03 µg/mL (≈ 0.0388 µM); MIC [21]: 0.03 µg/mL (≈ 0.0388 µM); MIC [23]: 0.01 µg/mL (≈ 0.0129 µM); MIC [26]: 0.1 µg/mL (≈ 0.129 µM) |
| CCC1OC(=O)C(C)C(=O)C(C)C(OC2OC(C)CC(N(C)C)C2O)C(C)(OCC=Cc2cccc([N+](=O)[O-])c2)CC(C)C(=O)C(C)C2NC(=O)OC12C (stereo not shown) [Example 193, R is —CH2CH═CH-(3-nitrophenyl)] | > 100 µg/mL | 0.02 µg/mL (≈ 0.0263 µM) | > 100 µg/mL | 100 µg/mL (≈ 132 µM) | 0.2 µg/mL (≈ 0.263 µM) | 0.1 µg/mL (≈ 0.132 µM) | 0.01 µg/mL (≈ 0.0132 µM) | 0.39 µg/mL (≈ 0.513 µM) | 0.05 µg/mL (≈ 0.0658 µM) | > 100 µg/mL | 0.1 µg/mL (≈ 0.132 µM) | > 100 µg/mL | 0.05 µg/mL (≈ 0.0658 µM) | 0.1 µg/mL (≈ 0.132 µM) | 0.1 µg/mL (≈ 0.132 µM) | 0.1 µg/mL (≈ 0.132 µM) | 0.1 µg/mL (≈ 0.132 µM) | 0.01 µg/mL (≈ 0.0132 µM) | 25 µg/mL (≈ 32.9 µM) | ≤ 0.005 µg/mL | MIC [23]: 0.01 µg/mL (≈ 0.0132 µM); MIC [26]: 0.05 µg/mL (≈ 0.0658 µM) |
| CCC1OC(=O)C(C)C(=O)C(C)C(OC2OC(C)CC(N(C)C)C2O)C(C)(OCC=Cc2ccc3ncccc3c2)CC(C)C(=O)C(C)C2NC(=O)OC12C (stereo not shown) [Example 194, R is —CH2CH═CH-(6-quinolyl)] | > 100 µg/mL | 0.02 µg/mL (≈ 0.0261 µM) | 100 µg/mL (≈ 131 µM) | 50 µg/mL (≈ 65.3 µM) | 0.39 µg/mL (≈ 0.509 µM) | 0.1 µg/mL (≈ 0.131 µM) | 0.01 µg/mL (≈ 0.0131 µM) | 0.78 µg/mL (≈ 1.02 µM) | ≤ 0.005 µg/mL | > 100 µg/mL | 0.05 µg/mL (≈ 0.0653 µM) | > 100 µg/mL | 0.05 µg/mL (≈ 0.0653 µM) | 0.05 µg/mL (≈ 0.0653 µM) | 0.05 µg/mL (≈ 0.0653 µM) | 0.1 µg/mL (≈ 0.131 µM) | 0.05 µg/mL (≈ 0.0653 µM) | 0.01 µg/mL (≈ 0.0131 µM) | 0.78 µg/mL (≈ 1.02 µM) | 0.01 µg/mL (≈ 0.0131 µM) | MIC [23]: ≤ 0.005 µg/mL; MIC [26]: 0.05 µg/mL (≈ 0.0653 µM) |
